This note sets out measurements from patent US6900019B1, “In-situ cell extraction and assay method” (Amersham Biosciences UK Limited, priority 1997, dated 2005).

The assay concerns rabbit anti-cAMP sera (antigen:antibody binding). Description: Scintillation proximity radioimmunoassay for cAMP: standard curves with lysis reagents and sequestrants. Particulars: for [125I]cAMP bound to SPA beads, counts per minute: no sequestrant; for restoration of antigen:antibody binding by different sequestrants: 2.5% (w/v) sequestrant, standards in 1% DTAB. The method, then: All assays were carried out in microtitre plates compatible with a microtitre plate beta scintillation counter. Standards (50 μl; 0.2-12.8 pmol/well), antisera (50 μl; at 1:11000 dilution), tracer (50 ul; 10000-20000 cpm) are added to anti-rabbit coated SPA beads (50 μl; 20 mg/ml). Non-specific binding was determined in the absence of specific rabbit antisera. SPA anti-rabbit reagent is placed onto a magnetic stirrer to ensure a homogeneous suspension before pipetting. All wells contained a total volume of 200 μl. The plates were sealed and incubated at room temperature (15-30° C.) for 15-20 hours. The amount of [^125I]cAMP bound to the SPA fluomicrospheres was determined by counting in a microtitre plate beta scintillation counter for 2 minutes.
Experiments were set up with:— • a) Working standards (4-256 pmol/ml; 0.2-12.8 pmol/well) were prepared in assay buffer (0.05M sodium acetate buffer containing 0.01% sodium azide) only (control) or assay buffer containing lysis reagent (e.g. DTAB, CPC or SDS; see experiment 1) at various concentrations. • b) Rabbit anti-cAMP sera prepared in assay buffer only (control) or assay buffer containing sequestrating agent at various concentrations depending on the experiment. • c) Radioactive tracer: adenosine 3′ 5′-cyclic phosphoric acid 2′-O-succinyl-3-[^125I] iodotyrosine methyl ester prepared in assay buffer only (control) or assay buffer containing sequestrating agent at various concentrations depending on the experiment. • d) Donkey anti-rabbit IgG coupled to scintillation proximity fluomicrospheres prepared in assay buffer only (control) or assay buffer containing sequestrating agent at various concentrations depending on the experiment. Experiment 1: Inhibition of Antigen and Antibody Binding by Several Lysis Reagents Method
In these experiments, standard curves were prepared for cAMP using the SPA immunoassay technique, described above, where working standards of cAMP were prepared in several lysis reagents at 1% (w/v) or 2% (w/v) final concentration. The detergents investigated included dodecyl trimethyl ammonium bromide (DTAB; Sigma Chemical Co. D8638), benzethonium chloride (BZC; Aldrich; B470-8), cetyl pyridinium chloride (CPC; Sigma Chemical Co; C9002), sodium dodecyl sulphate (SDS, Sigma chemical Co; L4509) and N-dodecyl-N,N-dimethyl-3-ammonio-1-propanesulphonate (DDAPS; Sigma Chemical Co.; D4516).
In these experiments, standard curves for cAMP were prepared using the SPA immunoassay technique described above, where working standards of cAMP were prepared in 1% (w/v), 1.5% (w/v) or 2% (w/v) lysis reagents (DTAB, SDS or CPC). The control consisted of no lysis reagent or cyclodextrin added. The effect including 2.5% (w/v) alpha-cyclodextrin (alpha-CD) (Sigma Chemical Co.; C4642) on antigen:antibody binding was investigated. Here, tracer, antisera and SPA beads were prepared in assay buffer containing 2.5% (w/v) alpha-CD. A second control tested the effect of 2.5% (w/v) alpha-CD on the standard curve without addition of lysis reagent.
In this experiment, standard curves for cAMP were prepared using the SPA radioimmunoassay where working standards of cAMP were prepared in 1% (w/v) DTAB. The effect of including 1% (w/v), 2% (w/v), 2.5% (w/v) and 5% (w/v) alpha-cyclodextrin on antigen:antibody binding was investigated. Here, tracer, antisera and SPA beads were prepared in assay buffer containing alpha-CD at the above concentrations. The control consisted of no lysis or cyclodextrin added to the assay.
In this experiment, standard curves for cAMP were prepared using the SPA immunoassay technique where working standards were prepared 1% (wt) lysis reagent (DTAB). The effect of including 2.5% (w/v) alpha-cyclodextrin (CD) 2.5% (w/v) beta-cyclodextrin (beta-CD) (Sigma is Chemical Co.; C4767) and 2.5% (w/v) gamma-cyclodextrin (gamma-CD) (Sigma Chemical Co.; 4892) on antigen:antibody binding was investigated. […]

The mark [1] stands for this setting: 1% lysis reagent, 0.2 pmol cAMP/well.
Setting [2] is: 1% lysis reagent, 0.4 pmol cAMP/well.
Where [3] appears, read: 1% lysis reagent, 0.8 pmol cAMP/well.
The mark [4] stands for this setting: 1% lysis reagent, 1.6 pmol cAMP/well.
Setting [5] is: 1% lysis reagent, 3.2 pmol cAMP/well.
The mark [6] stands for this setting: 1% lysis reagent, 6.4 pmol cAMP/well.
Where [7] appears, read: 1% lysis reagent, 12.8 pmol cAMP/well.
Setting [8] is: 1% lysis reagent, NSB (no specific antisera).
[9] abbreviates: 1% lysis reagent, Zero standard.
The mark [10] stands for this setting: 2% lysis reagent, 0.2 pmol cAMP/well.
Setting [11] is: 2% lysis reagent, 0.4 pmol cAMP/well.
Where [12] appears, read: 2% lysis reagent, 0.8 pmol cAMP/well.
Setting [13] is: 2% lysis reagent, 1.6 pmol cAMP/well.
The mark [14] stands for this setting: 2% lysis reagent, 3.2 pmol cAMP/well.
The mark [15] stands for this setting: 2% lysis reagent, 6.4 pmol cAMP/well.
Where [16] appears, read: 2% lysis reagent, 12.8 pmol cAMP/well.
The mark [17] stands for this setting: 2% lysis reagent, NSB (no specific antisera).
[18] abbreviates: 2% lysis reagent, Zero standard.

SMILES strings stand for the structures. Several values for one entry are separate records, joined by “and”; a condition that tells them apart may be missing. Equal entries are not always repeated.

For the compound `CC(C)(C)CC(C)(C)c1ccc(OCCOCC[N+](C)(C)Cc2ccccc2)cc1` [BZC, benzethonium chloride], the “[125I]cAMP bound to SPA beads, counts per minute” value (shortened to “[125I]cAMP bound … per minute”) is reported as 644 cpm under setting [1]; 501 cpm under setting [2]; 473 cpm under setting [3]; 426 cpm under setting [4]; 261 cpm under setting [5]; 16 cpm under setting [6]. For the same compound, the “[125I]cAMP bound … per minute” value by setting is: under setting [7], 6 cpm; under setting [8], 111 cpm; under setting [9], 951 cpm; under setting [10], 308 cpm; under setting [11], 338 cpm; under setting [12], 222 cpm. Moreover, the “[125I]cAMP bound … per minute” value by setting is: under setting [13], 156 cpm; under setting [14], 143 cpm; under setting [15], 96 cpm; under setting [16], 70 cpm; under setting [17], 117 cpm; under setting [18], 486 cpm.
Regarding `CCCCCCCCCCCC[N+](C)(C)CCCS(=O)(=O)[O-]` [DDAPS, N-dodecyl-N,N-dimethyl-3-ammonio-1-propanesulphonate], the “[125I]cAMP bound … per minute” value under setting [1] is 969 cpm and 762 cpm; the “[125I]cAMP bound … per minute” value under setting [2] is 849 cpm and 719 cpm; the “[125I]cAMP bound … per minute” value under setting [3] was 725 cpm and 689 cpm; the “[125I]cAMP bound … per minute” value under setting [4] was 610 cpm and 559 cpm; the “[125I]cAMP bound … per minute” value under setting [5] was 425 cpm and 446 cpm; the “[125I]cAMP bound … per minute” value under setting [6] was 311 cpm and 326 cpm. Besides, the “[125I]cAMP bound … per minute” value reads like this: under setting [7], 204 cpm and 173 cpm; under setting [8], 181 cpm and 137 cpm; under setting [9], 1109 cpm and 906 cpm; under setting [10], 416 cpm and 423 cpm; under setting [11], 426 cpm and 370 cpm; under setting [12], 429 cpm and 350 cpm. Also, the “[125I]cAMP bound … per minute” value is 339 cpm and 290 cpm under setting [13]; 303 cpm and 252 cpm under setting [14]; 215 cpm and 194 cpm under setting [15]; 109 cpm and 115 cpm under setting [16]; 129 cpm and 130 cpm under setting [17]; 579 cpm and 510 cpm under setting [18].
For `CCCCCCCCCCCCOS(=O)(=O)[O-].[Na+]` [SDS, sodium dodecyl sulphate], the “[125I]cAMP bound … per minute” value is, setting by setting: (1% lysis reagent, 0.2 pmol cAMP/well, sulphate) 1052 cpm and 1128 cpm; (1% lysis reagent, 0.4 pmol cAMP/well, sulphate) 973 cpm and 1052 cpm; (1% lysis reagent, 0.8 pmol cAMP/well, sulphate) 913 cpm and 973 cpm; (1% lysis reagent, 1.6 pmol cAMP/well, sulphate) 859 cpm and 913 cpm; (1% lysis reagent, 3.2 pmol cAMP/well, sulphate) 837 cpm and 859 cpm; under setting [6], 640 cpm. Besides, the “[125I]cAMP bound … per minute” value runs as follows: under setting [7], 394 cpm; under setting [8], 118 cpm; under setting [9], 1149 cpm.
As to `OC[C@H]1O[C@@H]2O[C@H]3[C@H](O)[C@@H](O)[C@@H](O[C@H]4[C@H](O)[C@@H](O)[C@@H](O[C@H]5[C@H](O)[C@@H](O)[C@@H](O[C@H]6[C@H](O)[C@@H](O)[C@@H](O[C@H]7[C@H](O)[C@@H](O)[C@@H](O[C@H]8[C@H](O)[C@@H](O)[C@@H](O[C@H]1[C@H](O)[C@H]2O)O[C@@H]8CO)O[C@@H]7CO)O[C@@H]6CO)O[C@@H]5CO)O[C@@H]4CO)O[C@@H]3CO` [beta-cyclodextrin], the “restoration of antigen:antibody binding by different sequestrants” value was “less effective”.
For `OC[C@H]1O[C@@H]2O[C@H]3[C@H](O)[C@@H](O)[C@@H](O[C@H]4[C@H](O)[C@@H](O)[C@@H](O[C@H]5[C@H](O)[C@@H](O)[C@@H](O[C@H]6[C@H](O)[C@@H](O)[C@@H](O[C@H]7[C@H](O)[C@@H](O)[C@@H](O[C@H]8[C@H](O)[C@@H](O)[C@@H](O[C@H]9[C@H](O)[C@@H](O)[C@@H](O[C@H]1[C@H](O)[C@H]2O)O[C@@H]9CO)O[C@@H]8CO)O[C@@H]7CO)O[C@@H]6CO)O[C@@H]5CO)O[C@@H]4CO)O[C@@H]3CO` [gamma cyclodextrin, gamma-cyclodextrin], the “restoration of antigen:antibody binding by different sequestrants” value was “restored binding to an optimal degree”.
